# Non-standard residues stand in square brackets, D forms with d. Residues, ends and D or L forms follow the SMILES beside them. Aib = CC(C)(N)C(=O)O
# Tested on: pancreatic β cells
# Assay: glucose-stimulated insulin secretion (GSIS) assay
# Assay type: cell-based
# Settings: GA targeting peptide; insulin secretion from pancreatic β cell cultures in vitro with glucose
# Method: Briefly, glucose and GA targeting peptide was added at various concentrations to pancreatic β cell cultures, and insulin secretion was detected by measuring insulin levels over time. EC50 was calculated for each peptide.
# The ability of these GA targeting agent-linker conjugates to stimulate […] secretion in vitro was measured using the GSIS assay described in Example 27. […] Each of these peptides contained a side-chain modified Lys residue according to the scheme illustrated in FIG. 30 at a different position.
row,EC50 [µM],Structure (SMILES)
1,< 10,CC[C@H](C)[C@H](NC(=O)[C@H](Cc1ccccc1)NC(=O)[C@H](CCC(=O)O)NC(=O)[C@H](CCCCN)NC(=O)[C@@H](NC(=O)[C@H](C)NC(=O)[C@H](CCC(N)=O)NC(=O)[C@H](CCC(=O)O)NC(=O)[C@H](CCC(=O)O)NC(=O)[C@H](CC(C)C)NC(=O)[C@H](Cc1ccc(O)cc1)NC(=O)[C@H](CO)NC(=O)[C@H](CO)NC(=O)[C@@H](NC(=O)[C@H](CC(=O)O)NC(=O)[C@H](CO)NC(=O)[C@@H](NC(=O)[C@H](Cc1ccccc1)NC(=O)[C@@H](NC(=O)CNC(=O)[C@H](CCC(=O)O)NC(=O)C(C)(C)NC(=O)[C@@H](N)Cc1c[nH]cn1)[C@@H](C)O)[C@@H](C)O)C(C)C)C(C)C)C(=O)N[C@@H](C)C(=O)N[C@@H](Cc1c[nH]c2ccccc12)C(=O)N[C@@H](CC(C)C)C(=O)N[C@H](C(=O)N[C@@H](CCCNC(=N)N)C(=O)NC(C)(C)C(=O)N[C@@H](CCCNC(=N)N)C(N)=O)[C@@H](C)CC [SEQ ID NO: 61] (H-H[Aib]EGTFTSDVSSYLEEQAVKEFIAWLIR[Aib]R-NH2)
2,< 10,CC[C@H](C)[C@H](NC(=O)[C@H](C)NC(=O)[C@H](CCC(N)=O)NC(=O)CNC(=O)[C@H](CCC(=O)O)NC(=O)[C@H](CC(C)C)NC(=O)[C@H](Cc1ccc(O)cc1)NC(=O)[C@H](CO)NC(=O)[C@H](CO)NC(=O)[C@@H](NC(=O)[C@H](CC(=O)O)NC(=O)[C@H](CO)NC(=O)[C@@H](NC(=O)[C@H](Cc1ccccc1)NC(=O)[C@@H](NC(=O)CNC(=O)[C@H](CCC(=O)O)NC(=O)C(C)(C)NC(=O)[C@@H](N)Cc1c[nH]cn1)[C@@H](C)O)[C@@H](C)O)C(C)C)C(=O)N[C@@H](CCCCN)C(=O)N[C@@H](CCC(=O)O)C(=O)N[C@@H](Cc1ccccc1)C(=O)N[C@H](C(=O)N[C@@H](C)C(=O)N[C@@H](Cc1c[nH]c2ccccc12)C(=O)N[C@@H](CC(C)C)C(=O)N[C@H](C(=O)N[C@@H](CCCCN)C(=O)NC(C)(C)C(=O)N[C@@H](CCCNC(=N)N)C(N)=O)C(C)C)[C@@H](C)CC [SEQ ID NO: 49] (H-H[Aib]EGTFTSDVSSYLEGQAIKEFIAWLVK[Aib]R-NH2)
3,< 10,CC[C@H](C)[C@H](NC(=O)[C@H](Cc1ccccc1)NC(=O)[C@H](CCC(=O)O)NC(=O)[C@H](CCCNC(=N)N)NC(=O)[C@H](C)NC(=O)[C@H](C)NC(=O)[C@H](CCC(N)=O)NC(=O)CNC(=O)[C@H](CCC(=O)O)NC(=O)[C@H](CC(C)C)NC(=O)[C@H](Cc1ccc(O)cc1)NC(=O)[C@H](CO)NC(=O)[C@H](CO)NC(=O)[C@@H](NC(=O)[C@H](CC(=O)O)NC(=O)[C@H](CO)NC(=O)[C@@H](NC(=O)[C@H](Cc1ccccc1)NC(=O)[C@@H](NC(=O)CNC(=O)[C@H](CCC(=O)O)NC(=O)C(C)(C)NC(=O)[C@@H](N)Cc1c[nH]cn1)[C@@H](C)O)[C@@H](C)O)C(C)C)C(=O)N[C@@H](C)C(=O)N[C@@H](Cc1c[nH]c2ccccc12)C(=O)N[C@@H](CC(C)C)C(=O)N[C@H](C(=O)N[C@@H](CCCCN)C(=O)NC(C)(C)C(=O)N[C@@H](CCCNC(=N)N)C(N)=O)C(C)C [SEQ ID NO: 51] (H-H[Aib]EGTFTSDVSSYLEGQAAREFIAWLVK[Aib]R-NH2)
4,< 10,CC[C@H](C)[C@H](NC(=O)[C@H](Cc1ccccc1)NC(=O)[C@H](CCC(=O)O)NC(=O)[C@H](CCCCN)NC(=O)[C@H](C)NC(=O)[C@H](C)NC(=O)[C@H](CCC(N)=O)NC(=O)[C@H](CC(=O)O)NC(=O)[C@H](CCC(=O)O)NC(=O)[C@H](CC(C)C)NC(=O)[C@H](Cc1ccc(O)cc1)NC(=O)[C@H](CO)NC(=O)[C@H](CO)NC(=O)[C@@H](NC(=O)[C@H](CC(=O)O)NC(=O)[C@H](CO)NC(=O)[C@@H](NC(=O)[C@H](Cc1ccccc1)NC(=O)[C@@H](NC(=O)CNC(=O)[C@H](CCC(=O)O)NC(=O)C(C)(C)NC(=O)[C@@H](N)Cc1c[nH]cn1)[C@@H](C)O)[C@@H](C)O)C(C)C)C(=O)N[C@@H](C)C(=O)N[C@@H](Cc1c[nH]c2ccccc12)C(=O)N[C@@H](CC(C)C)C(=O)N[C@H](C(=O)N[C@@H](CCCCN)C(=O)NC(C)(C)C(=O)N[C@@H](CCCNC(=N)N)C(N)=O)C(C)C [SEQ ID NO: 46] (H-H[Aib]EGTFTSDVSSYLEDQAAKEFIAWLVK[Aib]R-NH2)
5,< 10,CC[C@H](C)[C@H](NC(=O)[C@H](Cc1ccccc1)NC(=O)[C@H](CCC(=O)O)NC(=O)[C@H](CCCCN)NC(=O)[C@H](C)NC(=O)[C@H](C)NC(=O)[C@H](CCC(N)=O)NC(=O)[C@H](CCC(=O)O)NC(=O)[C@H](CCC(=O)O)NC(=O)[C@H](CC(C)C)NC(=O)[C@H](Cc1ccc(O)cc1)NC(=O)[C@H](CO)NC(=O)[C@H](CO)NC(=O)[C@@H](NC(=O)[C@H](CC(=O)O)NC(=O)[C@H](CO)NC(=O)[C@@H](NC(=O)[C@H](Cc1ccccc1)NC(=O)[C@@H](NC(=O)CNC(=O)[C@H](CCC(=O)O)NC(=O)C(C)(C)NC(=O)[C@@H](N)Cc1c[nH]cn1)[C@@H](C)O)[C@@H](C)O)C(C)C)C(=O)N[C@@H](C)C(=O)N[C@@H](Cc1c[nH]c2ccccc12)C(=O)N[C@@H](CC(C)C)C(=O)N[C@H](C(=O)N[C@@H](CCCCN)C(=O)NC(C)(C)C(=O)N[C@@H](CCCNC(=N)N)C(N)=O)C(C)C [SEQ ID NO: 45] (H-H[Aib]EGTFTSDVSSYLEEQAAKEFIAWLVK[Aib]R-NH2)
6,< 10,CC[C@H](C)[C@H](NC(=O)[C@H](Cc1ccccc1)NC(=O)[C@H](CCC(=O)O)NC(=O)[C@H](CCCCN)NC(=O)[C@H](C)NC(=O)[C@H](C)NC(=O)[C@H](CCC(N)=O)NC(=O)CNC(=O)[C@H](CCC(=O)O)NC(=O)CNC(=O)[C@H](Cc1ccc(O)cc1)NC(=O)[C@H](CO)NC(=O)[C@H](CO)NC(=O)[C@@H](NC(=O)[C@H](CC(=O)O)NC(=O)[C@H](CO)NC(=O)[C@@H](NC(=O)[C@H](Cc1ccccc1)NC(=O)[C@@H](NC(=O)CNC(=O)[C@H](CCC(=O)O)NC(=O)C(C)(C)NC(=O)[C@@H](N)Cc1c[nH]cn1)[C@@H](C)O)[C@@H](C)O)C(C)C)C(=O)N[C@@H](C)C(=O)N[C@@H](Cc1c[nH]c2ccccc12)C(=O)N[C@@H](CC(C)C)C(=O)N[C@H](C(=O)N[C@@H](CCCCN)C(=O)NC(C)(C)C(=O)N[C@@H](CCCNC(=N)N)C(N)=O)C(C)C [SEQ ID NO: 40] (H-H[Aib]EGTFTSDVSSYGEGQAAKEFIAWLVK[Aib]R-NH2)
7,< 10,CC[C@H](C)[C@H](NC(=O)[C@H](Cc1ccccc1)NC(=O)[C@H](CCC(=O)O)NC(=O)[C@H](CCCCN)NC(=O)[C@@H](NC(=O)[C@H](C)NC(=O)[C@H](CCC(N)=O)NC(=O)[C@H](CCC(=O)O)NC(=O)[C@H](CCC(=O)O)NC(=O)[C@H](CC(C)C)NC(=O)[C@H](Cc1ccc(O)cc1)NC(=O)[C@H](CO)NC(=O)[C@H](CO)NC(=O)[C@@H](NC(=O)[C@H](CC(=O)O)NC(=O)[C@H](CO)NC(=O)[C@@H](NC(=O)[C@H](Cc1ccccc1)NC(=O)[C@@H](NC(=O)CNC(=O)[C@H](CCC(=O)O)NC(=O)C(C)(C)NC(=O)[C@@H](N)Cc1c[nH]cn1)[C@@H](C)O)[C@@H](C)O)C(C)C)C(C)C)C(=O)N[C@@H](C)C(=O)N[C@@H](Cc1c[nH]c2ccccc12)C(=O)N[C@@H](CC(C)C)C(=O)N[C@H](C(=O)N[C@@H](CCCCN)C(=O)NC(C)(C)C(=O)N[C@@H](CCCNC(=N)N)C(N)=O)[C@@H](C)CC [SEQ ID NO: 57]
